Data from the NIST ThermoML archive (doi:10.1016/j.jct.2013.10.028).
Numbers after ± are expanded uncertainties.

Experiments:
[1] = molar heat capacity at constant pressure; settings: 100 kPa, Liquid, Large sample (1 g) DSC
[2] = molar heat capacity at constant pressure; wn = mass fraction of the nth substance listed; settings: 100 kPa, Liquid, Large sample (1 g) DSC

O [water]
[1]
Settings | molar heat capacity at constant pressure [J/K/mol]
308.15 K | 75.47 ± 3.2
313.15 K | 75.43 ± 3.2
318.15 K | 75.41 ± 3.2
323.15 K | 75.43 ± 3.2
328.15 K | 75.45 ± 3.2
333.15 K | 75.47 ± 3.2
338.15 K | 75.47 ± 3.2
343.15 K | 75.47 ± 3.2

[Cl-].[Li+] [lithium chloride] + O
molar heat capacity at constant pressure [J/K/mol], [2]
Settings | 308.15 K | 313.15 K | 318.15 K | 323.15 K | 328.15 K | 333.15 K | 338.15 K | 343.15 K
w1 = 0.15 | 68.89 ± 2.9 | 68.97 ± 2.9 | 69.06 ± 2.9 | 69.18 ± 2.9 | 69.28 ± 2.9 | 69.36 ± 2.9 | 69.36 ± 2.9 | 69.42 ± 2.9
w1 = 0.2001 | 67.4 ± 2.9 | 67.55 ± 2.9 | 67.65 ± 2.9 | 67.79 ± 2.9 | 67.93 ± 2.9 | 68.02 ± 2.9 | 68.08 ± 2.9 | 68.06 ± 2.9
w1 = 0.2501 | 66.11 ± 2.8 | 66.26 ± 2.8 | 66.43 ± 2.8 | 66.6 ± 2.8 | 66.76 ± 2.8 | 66.93 ± 2.8 | 67.02 ± 2.8 | 67.12 ± 2.8
w1 = 0.3 | 65.14 ± 2.8 | 65.44 ± 2.8 | 65.66 ± 2.8 | 65.9 ± 2.8 | 66.14 ± 2.8 | 66.34 ± 2.8 | 66.49 ± 2.8 | 66.58 ± 2.8
w1 = 0.3499 | 64.84 ± 2.8 | 65.16 ± 2.8 | 65.4 ± 2.8 | 65.65 ± 2.8 | 65.92 ± 2.8 | 66.15 ± 2.8 | 66.33 ± 2.8 | 66.49 ± 2.8
w1 = 0.3998 | 64.57 ± 2.7 | 64.89 ± 2.8 | 65.17 ± 2.8 | 65.48 ± 2.8 | 65.78 ± 2.8 | 66.04 ± 2.8 | 66.25 ± 2.8 | 66.39 ± 2.8
w1 = 0.4502 | 64.39 ± 2.7 | 64.76 ± 2.7 | 65.05 ± 2.8 | 65.37 ± 2.8 | 65.68 ± 2.8 | 65.95 ± 2.8 | 66.17 ± 2.8 | 66.34 ± 2.8
